According to ChEMBL document CHEMBL5728197, “KDM1A inhibitors for the treatment of disease” (2021):

Target: Lysine-specific histone demethylase 1A (Homo sapiens, UniProt O60341)
Experiment: Biological Activity Assay: Assaying the inhibition of KDM1A can be determined in vitro, in cultured cells, and in animals. There are a variety of spectrophotometric methods to detect the results of demethylation of methylated lysines, viz., detecting the products of KDM1A demethylase oxidative activity on a peptide fragment of at least 18 amino acid representing the N-terminus of the histone H3 substrate that contains a monomethyl at the fourth lysine residue. Hydrogen peroxide, one product of the KDM1A demethylase reaction, reacts with horseradish peroxidase and dihydroxyphenoxazine (ADHP) to produce the fluorescent compound resorufin (excitation=530-560 nm:emission=590 nm). The KDM1A demethylase enzyme activity can obtained from mammalian cells or tissues expressing KDM1A from an endogenous or recombinant gene and purified or assayed from a whole cell extract. These methods can be used to determine the concentration of the disclosed compounds can inhibit fifty percent of the enzyme activity (IC50).

Compound | IC50
O=C(N[C@@H](COCCN[C@@H]1C[C@H]1c1ccc(F)cc1)C(=O)N1CCOCC1)c1ccc(F)cc1 | < 1 µM
COc1ccc([C@@H]2C[C@H]2NC(=O)COC[C@H](NC(=O)c2ccc(F)cc2)C(=O)N2CCOCC2)cc1 | > 1 µM
